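How tested: cells in 96-well plates exposed to compound for 48 hours at five concentrations. Abbreviation: GI50, concentration required for 50% inhibition of growth.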 Active and inactive are the calls of the source. No stated cut-off is given here; in the data, active = GI50 up to about 1.1 µM and inactive = higher.
Key:
Test in all cases: DTP human tumour cell line panel, 48 h
[1] = tested on: CAKI-1
[2] = tested on: DLD-1
[3] = tested on: DMS-114
[4] = tested on: HCT-15
[5] = tested on: IGROV-1
[6] = tested on: K562
[7] = tested on: KM-20L2
[8] = tested on: LOX IMVI
[9] = tested on: NCI-H460
[10] = tested on: OVCAR-4
[11] = tested on: OVCAR-8
[12] = tested on: SF-268
[13] = tested on: SF-539
[14] = tested on: SK-OV-3
[15] = tested on: SNB-19
[16] = tested on: SR
[17] = tested on: SW-620
[18] = tested on: BT-549
[19] = tested on: Hs-578T
[20] = tested on: MDA-MB-435

SMILES	GI50 [1]	GI50 [2]	GI50 [3]	GI50 [4] [µM]	GI50 [5]	GI50 [6]	GI50 [7]	GI50 [8]	GI50 [9]	GI50 [10]	GI50 [11]	GI50 [12]	GI50 [13]	GI50 [14]	GI50 [15]	GI50 [16]	GI50 [17]	GI50 [18]	GI50 [19]	GI50 [20]
C/C(CC(=O)Nc1ccc(NC(=O)C/C(C)=N\NC(N)=O)cc1)=N/NC(N)=O	> 100 µM (inactive)	> 45.2 µM (inactive)	> 35.6 µM (inactive)	> 42.3	> 100 µM (inactive)	52.7 µM (inactive)	> 100 µM (inactive)	> 42.5 µM (inactive)	> 62.4 µM (inactive)	96.2 µM (inactive)	> 100 µM (inactive)	> 60 µM (inactive)	> 100 µM (inactive)	> 100 µM (inactive)	> 100 µM (inactive)	38.5 µM (inactive)	> 100 µM (inactive)	–	–	–
CC1OC(n2cc(I)c(=O)[nH]c2=O)C=CC1=O (configuration not stated)	16 µM (inactive)	13.2 µM (inactive)	17 µM (inactive)	17.1	20.4 µM (inactive)	3.92 µM (inactive)	17 µM (inactive)	6.47 µM (inactive)	18.8 µM (inactive)	16.3 µM (inactive)	17.1 µM (inactive)	14.1 µM (inactive)	14.1 µM (inactive)	29.2 µM (inactive)	17.7 µM (inactive)	12.6 µM (inactive)	13.2 µM (inactive)	–	–	–
Nc1ccc2ncc(Nc3ccc(Cl)c(Cl)c3)nc2c1	23.4 µM (inactive)	29.6 µM (inactive)	13 µM (inactive)	34	–	18.1 µM (inactive)	31.8 µM (inactive)	21.6 µM (inactive)	27.4 µM (inactive)	46 µM (inactive)	25.5 µM (inactive)	39.7 µM (inactive)	17.3 µM (inactive)	38.9 µM (inactive)	24.5 µM (inactive)	57.7 µM (inactive)	35.2 µM (inactive)	–	–	–
C[N+]1(C)C/C(=C\C=C\c2ccccc2)C(=O)/C(=C/C=C/c2ccccc2)C1	65 µM (inactive)	16.1 µM (inactive)	2.72 µM (inactive)	40.2	2.99 µM (inactive)	4.18 µM (inactive)	14.7 µM (inactive)	12.2 µM (inactive)	17.1 µM (inactive)	42.7 µM (inactive)	14.5 µM (inactive)	4.97 µM (inactive)	7.55 µM (inactive)	37.7 µM (inactive)	6.08 µM (inactive)	3.1 µM (inactive)	9.79 µM (inactive)	1.92 µM (inactive)	4.29 µM (inactive)	4.28 µM (inactive)
COC(=O)N/N=C(/CC1(O)C(=O)Nc2ccc([N+](=O)[O-])cc21)c1ccccc1 (configuration not stated)	75.7 µM (inactive)	46.7 µM (inactive)	41.9 µM (inactive)	> 51.2	> 46.7 µM (inactive)	40.7 µM (inactive)	> 100 µM (inactive)	18.9 µM (inactive)	63.8 µM (inactive)	47.3 µM (inactive)	29.4 µM (inactive)	45.4 µM (inactive)	38 µM (inactive)	66.4 µM (inactive)	38.9 µM (inactive)	29.9 µM (inactive)	37.8 µM (inactive)	38.5 µM (inactive)	20.8 µM (inactive)	20.8 µM (inactive)
c1ccc(-c2sc(-c3ccccc3)c3c2C(c2ccccc2)c2c(-c4ccccc4)sc(-c4ccccc4)c2C3c2ccccc2)cc1 (configuration not stated)	> 100 µM (inactive)	> 100 µM (inactive)	> 100 µM (inactive)	> 100	> 100 µM (inactive)	> 100 µM (inactive)	> 100 µM (inactive)	> 100 µM (inactive)	> 100 µM (inactive)	> 100 µM (inactive)	> 100 µM (inactive)	> 100 µM (inactive)	> 100 µM (inactive)	> 100 µM (inactive)	> 100 µM (inactive)	> 100 µM (inactive)	> 100 µM (inactive)	–	–	–
Cc1ccc2nc(N)[nH]c(=O)c2c1Sc1ccncc1	31.6 µM (inactive)	> 100 µM (inactive)	12.6 µM (inactive)	> 100	> 71.6 µM (inactive)	15.8 µM (inactive)	10 µM (inactive)	11.2 µM (inactive)	5.28 µM (inactive)	78.2 µM (inactive)	> 31.1 µM (inactive)	10.5 µM (inactive)	4.78 µM (inactive)	> 30.6 µM (inactive)	> 100 µM (inactive)	5.07 µM (inactive)	> 100 µM (inactive)	–	–	–
O=C(NC(=O)c1ccccc1[N+](=O)[O-])Nc1ccc(Oc2ncc(Br)cn2)c(Cl)c1	0.0194 µM (active)	0.0148 µM (active)	< 0.0184 µM (active)	0.0441	0.0258 µM (active)	0.0194 µM (active)	0.022 µM (active)	0.0528 µM (active)	0.0252 µM (active)	0.0284 µM (active)	0.0301 µM (active)	0.0478 µM (active)	0.0203 µM (active)	0.0269 µM (active)	0.0278 µM (active)	0.0296 µM (active)	0.0237 µM (active)	0.0703 µM (active)	0.0342 µM (active)	0.00802 µM (active)
O=C(O)CCSC(=O)Nc1ccccc1Cl	> 100 µM (inactive)	> 100 µM (inactive)	> 100 µM (inactive)	> 100	> 100 µM (inactive)	> 100 µM (inactive)	> 100 µM (inactive)	> 100 µM (inactive)	> 100 µM (inactive)	> 100 µM (inactive)	> 100 µM (inactive)	> 100 µM (inactive)	> 100 µM (inactive)	> 100 µM (inactive)	> 100 µM (inactive)	> 100 µM (inactive)	> 100 µM (inactive)	–	–	–
CCCCCCCCCCCCNC(=S)OCCCC	> 100 µM (inactive)	> 100 µM (inactive)	34.8 µM (inactive)	> 100	> 100 µM (inactive)	65.3 µM (inactive)	> 100 µM (inactive)	15.8 µM (inactive)	> 100 µM (inactive)	> 100 µM (inactive)	> 100 µM (inactive)	> 100 µM (inactive)	> 100 µM (inactive)	> 100 µM (inactive)	> 100 µM (inactive)	30.1 µM (inactive)	> 100 µM (inactive)	–	–	–
NCCSSCc1ccccc1CSSCCN	> 100 µM (inactive)	48.4 µM (inactive)	> 100 µM (inactive)	38.5	> 100 µM (inactive)	16.4 µM (inactive)	> 100 µM (inactive)	14 µM (inactive)	> 100 µM (inactive)	> 100 µM (inactive)	66.2 µM (inactive)	> 100 µM (inactive)	> 100 µM (inactive)	> 100 µM (inactive)	> 100 µM (inactive)	41.7 µM (inactive)	20.4 µM (inactive)	–	–	–
N#C/C(=C\c1ccc(O)c(O)c1)C(N)=S [TYRPHOSTIN 47]	> 100 µM (inactive)	64.6 µM (inactive)	18.2 µM (inactive)	53.5	> 100 µM (inactive)	22.5 µM (inactive)	> 70.5 µM (inactive)	> 88.9 µM (inactive)	45.9 µM (inactive)	> 100 µM (inactive)	> 100 µM (inactive)	66.1 µM (inactive)	> 94.4 µM (inactive)	> 100 µM (inactive)	> 70.3 µM (inactive)	36.1 µM (inactive)	79.1 µM (inactive)	–	–	–

Source: ChEMBL document CHEMBL1201862, “PubChem BioAssay data set” (2004)
